Experimental findings from patent US8562975B2, “Method for stabilizing reduced coenzyme Q10 and composition therefor” (Kaneka Corporation, priority 2002, dated 2013) are described below.

A short description of data set [1]: Solubility of reduced coenzyme Q10 crystals in fats and oils at 30° C. Format: physicochemical. As to the method:
The solubility of the crystals obtained in Production Example 1 in medium-chain fatty acid triglyceride (MCT, C8:C10=6:4), soybean oil, safflower oil, or rice oil at 30° C. is shown in Table 8.

Data set [2] can be described thus: Storage stability of reduced coenzyme Q10 compositions in the air at 40° C., light-shielded, 3 days (HPLC weight ratio). In kind it is physicochemical. Conditions: vitamin E content high (4.11% by weight based on the system excluding coenzyme Q10).
Protocol: The purity and reduced coenzyme Q10/oxidized coenzyme Q10 ratio (weight ratio) were determined by the following HPLC analysis.
C18 (product of Waters), 250 mm (in length), 4.6 mm (in inside diameter): mobile phase; C2H5OH/CH3OH=4/3 (v/v): detection wavelength; 210 nm: flow rate; 1 ml/min: retention time of reduced coenzyme Q10; 9.1 min: retention time of oxidized coenzyme Q10; 13.3 min.
The crystals obtained in Production Example 1 were added to soybean oil, glycerol, and a mixture thereof, respectively, to a concentration of 6% by weight, and the resulting mixtures were stored in the air at 40° C. under a light-shielded condition for 3 days, and the reduced coenzyme Q10/oxidized coenzyme Q10 weight ratios in the solutions were determined.
The crystals obtained in Production Example 1 were added to various fats and oils specified in Table 2, respectively, to a concentration of 6% by weight, and the resulting mixtures were stored in the air at 40° C. under a light-shielded condition for 3 days, and the reduced coenzyme Q10/oxidized coenzyme Q10 weight ratios in the solutions were determined.
The crystals obtained in Production Example 1 were added to olive oil to a concentration of 6% by weight, and the resulting mixture was stored in the air at 40° C. under a light-shielded condition for 3 days. […]

On to `COc1c(O)c(C)c(C/C=C(\C)CC/C=C(\C)CC/C=C(\C)CC/C=C(\C)CC/C=C(\C)CC/C=C(\C)CC/C=C(\C)CC/C=C(\C)CC/C=C(\C)CCC=C(C)C)c(O)c1OC` [Compar. Ex. 1, reduced coenzyme Q10], for which the Solubility is on record as 22.4 wt % in data set [1] (in MCT (C8:C10=6:4) at 30° C.), 10.2 wt % in data set [1] (in rice oil at 30° C.), 11.1 wt % in data set [1] (in safflower oil at 30° C.) and 10.9 wt % in data set [1] (in soybean oil at 30° C.).
In the case of vitamin E, in data set [2], the “effect on stabilization of reduced coenzyme Q10, in words” value was “inhibits the stabilization of reduced coenzyme Q10”.
